Source: the NIST ThermoML archive (doi:10.1016/j.jct.2016.09.031)
± gives the expanded uncertainty stated by the source. Blank lines part the entries; values can stand above or below the compound they belong to.

How the values were obtained:
[1] = molar heat capacity at constant pressure; mn = molality of the nth substance listed, in mol/kg; conditions: 298.15 K, 100 kPa, Liquid, Flow calorimetry
[2] = molar heat capacity at constant pressure; conditions: 298.15 K; 101.33 kPa; Liquid; Flow calorimetry

molar heat capacity at constant pressure ([1]; m1 = 0.2644): 74.19 ± 1.5 J/K/mol | molar heat capacity at constant pressure ([1]; m1 = 0.5336): 73.52 ± 1.5 J/K/mol | molar heat capacity at constant pressure ([1]; m1 = 1.066): 72.48 ± 1.5 J/K/mol | molar heat capacity at constant pressure ([1]; m1 = 2.018): 70.13 ± 1.4 J/K/mol | molar heat capacity at constant pressure ([1]; m1 = 3.02): 68.3 ± 1.4 J/K/mol | molar heat capacity at constant pressure ([1]; m1 = 3.877): 67.71 ± 1.4 J/K/mol | molar heat capacity at constant pressure ([1]; m1 = 5.674): 66.01 ± 1.3 J/K/mol | molar heat capacity at constant pressure ([1]; m1 = 6.822): 65.63 ± 1.3 J/K/mol
SMILES: [Cl-].[Cs+] [cesium chloride] + O

molar heat capacity at constant pressure ([1]; m1 = 0.4938): 73.89 ± 1.5 J/K/mol | molar heat capacity at constant pressure ([1]; m1 = 0.8703): 73.2 ± 1.5 J/K/mol | molar heat capacity at constant pressure ([1]; m1 = 1.515): 71.66 ± 1.4 J/K/mol | molar heat capacity at constant pressure ([1]; m1 = 2.41): 69.91 ± 1.4 J/K/mol | molar heat capacity at constant pressure ([1]; m1 = 3.388): 68.46 ± 1.4 J/K/mol | molar heat capacity at constant pressure ([1]; m1 = 4.213): 67.56 ± 1.4 J/K/mol | molar heat capacity at constant pressure ([1]; m1 = 4.888): 67.01 ± 1.3 J/K/mol | molar heat capacity at constant pressure ([1]; m1 = 5.84): 66.18 ± 1.3 J/K/mol
SMILES: [Cl-].[Rb+] [rubidium chloride] + O

molar heat capacity at constant pressure ([1]; m1 = 2.05): 72.32 ± 1.5 J/K/mol
SMILES: [Cl-].[Na+] [sodium chloride] + O

molar heat capacity at constant pressure [2]: 75.11 ± 1.5 J/K/mol
SMILES: O [water]

molar heat capacity at constant pressure ([1]; m2 = 0): 75.11 ± 1.5 J/K/mol
SMILES: O [water] + [Cl-].[Cs+]

molar heat capacity at constant pressure ([1]; m2 = 0): 75.11 ± 1.5 J/K/mol
SMILES: O [water] + [Cl-].[Rb+]
